Results as given in patent US7586008B2, “Propofol analogs, process for their preparation, and methods of use” (Abraxis Bioscience, Inc., priority 2003, dated 2009).
pIC50: −log10 of the molar value. Several values for one entry are separate records, joined by “and”; a condition that tells them apart may be missing. Identical values can stand only once. Like-named read-outs stand apart in the source and are kept apart here.

Columns and labels:
rats [1] = test: In vivo hypnotic/anesthetic activity, time to recovery of righting reflex; set-up: species or system rat; conditions: for Anesthesia Activity (Time to awakening, min): rats, tail vein injection in DMSO, 28 μmol/kg (5 mg/kg for propofol); for Time to Awakening (h) [mean ± SD, (N)] / time rats were asleep at LD10: rat
Method: (§1) To determine the binding constant (KD) of propofol and its analogs for GABAA Cl channel, binding was determined as in Example 25 in presence of increasing concentration of propofol and the KD determined graphically using the Hill plots. In vivo hypnotic activity was determined as follows. Drugs solubilized in DMSO were administered to rats by tail vein injection (N=5 rats per group). A dose level of 28 μmol/kg (5 mg/kg for propofol) was used to compensate for differences in molecular weight of the analogs. Anesthetic activity in vivo was determined as time to recovery of righting reflex following administration of the compounds.
(§2) Dose escalation experiment was performed in rat in order to compare the toxicity and the pharmacodynamic of CT8 against propofol. Drugs solubilized in DMSO were administered to rats (5 rats per group). Anesthetic activity in vivo was determined as time to recovery of righting reflex. Mortality was also monitored and the LD50 curves for propofol and CT8 constructed. In order to adjust for the differences in molecular weight between the two compounds, μmol/kg dose was used.

rats [2] = test: Dose escalation toxicity, mortality and LD curves; conditions: rat; for calculated LD10: drugs in DMSO
Method: as §2

in vivo = conditions: male, Sprague-Dawley, rat, whole blood, iv
[3] = rat; for V1 / V2: single i.v. bolus in DMSO, propofol 5 mg/kg, CT8 10 mg/kg
GABAA Cl channel = test: Competitive binding assay, GABAA Cl channel (3H-TBOB), bovine hippocampus; conditions: for pIC50: read-out: GABAA CI Channel Binding (IC50); for Percent Inhibition, chloride channel: propofol at 10^-4 M
Method: (§3) The propofol binding site on GABAA was defined using a series of competitive binding assays. Frozen bovine hippocampus was thawed and homogenized in 40 volumes of ice-cold 0.32 M sucrose. The suspension was centrifuged at 1000×g for 10 minutes at 4° C. The pellet was washed twice in assay buffer and reacted with radioactive ligand in presence or absence of propofol at 10−4 M final concentration. The amount of radioactivity remained on the Whatman filter following filtration of the reaction mix and two washes with assay buffer was determined using a liquid scintillation counter. Inhibition of radioactive ligand binding by propofol represents the competitive binding of propofol to the same site as the radioactive ligand. GABAA agonist site, GABAA α-1 site, GABAA α-5 site, GABAA α-6 site, and GABAA Cl channel were assayed using ^3H-GABA, ^3H-Flunitrazepam, ^3H-RY80, ^3H-Ro 15-4513, and ^3H-TBOB.
as §1

GABAA alpha 2 site = conditions: propofol at 10^-4 M
Method: as §3

GABAA agonist site = conditions: propofol at 10^-4 M, 3H-GABA
Method: as §3

GABAA α-1 site = conditions: propofol at 10^-4 M, 3H-Flunitrazepam
Method: as §3

GABAA α-6 site = conditions: propofol at 10^-4 M, 3H-Ro 15-4513
Method: as §3

[4] = increasing concentration, Hill plots

Structure (SMILES): CC(C)c1cc(C(=O)c2ccc(F)cc2)cc(C(C)C)c1O [CT7, (4-fluorophenyl)-(4-hydroxy-3,5-diisopropylphenyl)methanone]
- Anesthesia Activity (Time to awakening, min) (rats [1]): 34.2 ± 1.2, N = 2 min

Structure (SMILES): CC(C)c1cc(C(=O)c2ccc(C(F)(F)F)cc2)cc(C(C)C)c1O [CT8, (4-(trifluoromethyl)phenyl)-(4-hydroxy-3,5-diisopropylphenyl)methanone]
- Mortality (%) (rats [2]; dose 1.427959 μmol/kg): 0%
- Mortality (%) (rats [2]; dose 2.855919 μmol/kg): 0%
- Mortality (%) (rats [2]; dose 14.2796 μmol/kg): 0%
- Mortality (%) (rats [2]; dose 28.55919 μmol/kg): 10%
- Mortality (%) (rats [2]; dose 57.11838 μmol/kg): 40%
- Mortality (%) (rats [2]; dose 114.2368 μmol/kg): 100%
- Mortality (%) (rats [2]; dose 228.4735 μmol/kg): 100%
- calculated LD10 (rats [2]): 29 µmol/kg
- Time to Awakening (h) [mean ± SD, (N)] (rats [1]; dose 1.43 μmol/kg): 0.000 ± 0.000, (5) h
- Time to Awakening (h) [mean ± SD, (N)] (rats [1]; dose 2.86 μmol/kg): 0.000 ± 0.000, (5) h
- Time to Awakening (h) [mean ± SD, (N)] (rats [1]; dose 14.28 μmol/kg): 0.748 ± 0.094, (5) h
- Time to Awakening (h) [mean ± SD, (N)] (rats [1]; dose 28.10 μmol/kg): 1.543 ± 0.085, (4) h
- Time to Awakening (h) [mean ± SD, (N)] (rats [1]; dose 28.56 μmol/kg): 1.728 ± 0.154 (5) h
- Time to Awakening (h) [mean ± SD, (N)] (rats [1]; dose 57.12 μmol/kg): 3.553 ± 0.166, (3) h
- time rats were asleep at LD10 (rats [1]): 1.73 h
- Vd (in vivo): 5.3 L/kg
- clearance (in vivo): 1.33 mL/min/kg
- AUC, fold higher than that of propofol ([3]; i.v. bolus, ratio to propofol): 317 ×
- CL, fold slower than propofol ([3]; i.v. bolus, ratio to propofol): 146 ×
- V1, fold smaller than that of propofol ([3]; i.v. bolus, ratio to propofol): 375 ×
- V2, fold smaller than that of propofol ([3]; i.v. bolus, ratio to propofol): 11 ×
- Vss, fold smaller than that of propofol ([3]; i.v. bolus, ratio to propofol): 14 ×
- V1 [3]: 0.04 L/kg
- V2 [3]: 5.2 L/kg
- pIC50 (GABAA Cl channel; [4]): 6.24

Structure (SMILES): CC(C)c1cc(C(=O)c2ccc([N+](=O)[O-])cc2)cc(C(C)C)c1O [CY61, (4-hydroxy-3,5-diisopropylphenyl)-(4-nitrophenyl)methanone]
- Anesthesia Activity (Time to awakening, min) (rats [1]): 57.2 ± 0.7, N = 5 min
- pIC50 (GABAA Cl channel; [4]): 6.30

Structure (SMILES): CC(C)c1cc(C(=O)c2ccc(C(F)(F)F)c(F)c2)cc(C(C)C)c1O [CY93, (3-fluoro-4-(trifluoromethyl)phenyl)-(4-hydroxy-3,5-diisopropylphenyl)methanone]
- Anesthesia Activity (Time to awakening, min) (rats [1]): 52.4 ± 37.7, N = 3 min
- pIC50 (GABAA Cl channel; [4]): 5.90

Structure (SMILES): CC(C)c1cc(C(=O)c2cccc(C(F)(F)F)c2)cc(C(C)C)c1O [CY96, (3-(trifluoromethyl)phenyl)-(4-hydroxy-3,5-diisopropylphenyl)methanone]
- Anesthesia Activity (Time to awakening, min) (rats [1]): 5.5 ± 2.4, N = 5 min
- pIC50 (GABAA Cl channel; [4]): 5.41

Structure (SMILES): CC(C)c1cc(C(=O)c2cc(F)cc(C(F)(F)F)c2)cc(C(C)C)c1O [CY97, (3-fluoro-5-(trifluoromethyl)phenyl)-(4-hydroxy-3,5-diisopropylphenyl)methanone]
- Anesthesia Activity (Time to awakening, min) (rats [1]): 1.9 ± 1.0, N = 5 min
- pIC50 (GABAA Cl channel; [4]): 5.33

Structure (SMILES): CC(C)c1cc(C(=O)c2ccc3ccccc3c2)cc(C(C)C)c1O [CY99, (4-hydroxy-3,5-diisopropylphenyl)-(naphthalen-2-yl)methanone]
- Anesthesia Activity (Time to awakening, min) (rats [1]): 5.5 ± 3.4, N = 5 min
- GABAA CI Channel Binding (IC50, μM) (GABAA Cl channel; [4]): No activity

Structure (SMILES): CC(C)c1cc(C(=O)c2cc(C(F)(F)F)cc(C(F)(F)F)c2)cc(C(C)C)c1O [CY104, (3,5-bis(trifluoromethyl)phenyl)-(4-hydroxy-3,5-diisopropylphenyl)methanone]
- Anesthesia Activity (Time to awakening, min) (rats [1]): 6.4 ± 2.8, N = 4 min
- pIC50 (GABAA Cl channel; [4]): 4.67

Structure (SMILES): CC(C)c1cc(C(=O)c2ccc(C(C)(C)C)cc2)cc(C(C)C)c1O [CY120, (4-tert-butylphenyl)-(4-hydroxy-3,5-diisopropylphenyl)methanone]
- Anesthesia Activity (Time to awakening, min) (rats [1]): 15.5 ± 9.2, N = 2 min

Structure (SMILES): CC(C)Cc1ccc(C(=O)c2cc(C(C)C)c(O)c(C(C)C)c2)cc1 [CY122, (4-hydroxy-3,5-diisopropylphenyl)-(4-isobutylphenyl)methanone]
- Anesthesia Activity (Time to awakening, min) (rats [1]): 7.6 ± 1.8, N = 5 min

Structure (SMILES): CON=C(c1ccc(C(F)(F)F)cc1)c1cc(C(C)C)c(O)c(C(C)C)c1 [CY127, 4-((4-(trifluoromethyl)phenyl)-(methoxyimino)methyl)-2,6-diisopropylphenol]
- Anesthesia Activity (Time to awakening, min) (rats [1]): 8.8 ± 5.8, N = 5 min

Structure (SMILES): CC(C)c1cc(Cc2ccc(C(F)(F)F)cc2)cc(C(C)C)c1O [CY130, 4-(4-(trifluoromethyl)benzyl)-2,6-diisopropylphenol]
- Anesthesia Activity (Time to awakening, min) (rats [1]): 8.2 ± 3.0, N = 5 min

Structure (SMILES): CC(C)c1cc(C(O)c2ccc(C(F)(F)F)cc2)cc(C(C)C)c1O (stereo not drawn) [CY135, 4-((4-(trifluoromethyl)phenyl)-(hydroxy)methyl)-2,6-diisopropylphenol]
- Anesthesia Activity (Time to awakening, min) (rats [1]): 15.0 ± 11.4, N = 5 min

Structure (SMILES): CC(C)c1cc(C(=O)c2ccc(I)cc2)cc(C(C)C)c1O [CY155, (4-hydroxy-3,5-diisopropylphenyl)-(4-iodophenyl)methanone]
- pIC50 (GABAA Cl channel; [4]): 6.24

Structure (SMILES): COc1ccc(C(=O)c2cc(C(C)C)c(O)c(C(C)C)c2)cc1 [CY157, (4-hydroxy-3,5-diisopropylphenyl)-(4-methoxyphenyl)methanone]
- Anesthesia Activity (Time to awakening, min) (rats [1]): 0.0 + 0.0, N = 5 min

Structure (SMILES): CC(C)c1cc(C(=O)c2ccc(C#N)cc2)cc(C(C)C)c1O [CY175, (4-cyanophenyl)-(4-hydroxy-3,5-diisopropylphenyl)methanone]
- Anesthesia Activity (Time to awakening, min) (rats [1]): 43.4 ± 23.5, N = 2 min

Structure (SMILES): CC(C)c1cc(C(=O)c2ccc(C(F)(F)F)nc2)cc(C(C)C)c1O [CY176, (6-(trifluoromethyl)pyridin-3-yl)-(4-hydroxy-3,5-diisopropylphenyl)methanone]
- Anesthesia Activity (Time to awakening, min) (rats [1]): 14.9 + 21.1, N = 2 min

Structure (SMILES): CC(C)c1cc(C(=O)c2ccc(S(C)(=O)=O)cc2)cc(C(C)C)c1O [CY177]
- Anesthesia Activity (Time to awakening, min) (rats [1]): 4.6 ± 1.5, N = 5 min

Structure (SMILES): CC(C)c1cc(C(=O)c2ccc(Br)cc2)cc(C(C)C)c1O [CY178, (4-bromophenyl)-(4-hydroxy-3,5-diisopropylphenyl)methanone]
- Anesthesia Activity (Time to awakening, min) (rats [1]): 66.6 ± 17.9, N = 5 min

Structure (SMILES): CCCc1ccc(C(=O)c2cc(C(C)C)c(O)c(C(C)C)c2)cc1 [CY181, (4-hydroxy-3,5-diisopropylphenyl)-(4-propylphenyl)methanone]
- Anesthesia Activity (Time to awakening, min) (rats [1]): 9.0 + 20.1, N = 5 min

Structure (SMILES): CC(C)c1cc(C(=O)c2ccc(Cl)cc2)cc(C(C)C)c1O [CY182, (4-chlorophenyl)-(4-hydroxy-3,5-diisopropylphenyl)methanone]
- Anesthesia Activity (Time to awakening, min) (rats [1]): 67.7 ± 5.1, N = 3 min

Structure (SMILES): CC(C)c1cccc(C(C)C)c1O [Propofol, 2,6-diisopropylphenol]
- Mortality (%) (rats [2]; dose 5.609469 μmol/kg): 0%
- Mortality (%) (rats [2]; dose 28.04734 μmol/kg): 10%
- Mortality (%) (rats [2]; dose 56.09469 μmol/kg): 80%
- Mortality (%) (rats [2]; dose 112.1894 μmol/kg): 100%
- calculated LD10 (rats [2]): 28 µmol/kg
- Time to Awakening (h) [mean ± SD, (N)] (rats [1]; dose 5.61 μmol/kg): 0.000 ± 0.000, (5) h
- Time to Awakening (h) [mean ± SD, (N)] (rats [1]; dose 28.05 μmol/kg): 0.346 ± 0.149, (4) h and 0.350 ± 0.228 (5) h
- Time to Awakening (h) [mean ± SD, (N)] (rats [1]; dose 56.09 μmol/kg): 0.600 ± 0.000, (1) h
- time rats were asleep at LD10 (rats [1]): 0.35 h
- Vd (in vivo): 73 L/kg
- clearance (in vivo): 195 mL/min/kg
- Percent Inhibition, alpha 2 site (GABAA alpha 2 site): No significant inhibition
- Percent Inhibition, alpha 2 site (GABAA alpha 2 site; listed as propofol): −15.58%
- Percent Inhibition, agonist site (GABAA agonist site): No significant inhibition
- Percent Inhibition, agonist site (GABAA agonist site; listed as propofol): 12.48%
- Percent Inhibition, alpha 1 site (GABAA α-1 site): No significant inhibition
- Percent Inhibition, alpha 1 site (GABAA α-1 site; listed as propofol): −14.31%
- Percent Inhibition, alpha 6 site (GABAA α-6 site): No significant inhibition
- Percent Inhibition, alpha 6 site (GABAA α-6 site; listed as propofol): −0.89%
- V1 [3]: 15.0 L/kg
- V2 [3]: 58.0 L/kg
- pIC50 (GABAA Cl channel; [4]): 5.31
- Percent Inhibition, chloride channel (GABAA Cl channel): only inhibited the binding of TBOB
- Percent Inhibition, chloride channel (GABAA Cl channel; listed as propofol): 117.52%
